# Measured values from patent US12404241B2 (Celgene Corporation, priority 2018, dated 2025).
# Counter-ions that a name gives are not always drawn.
# Biological target: T1, AR (Homo sapiens, UniProt P10275)
# T1 construct: endogenous in cells; host or cells: VCaP cells
# T1 sequence (P10275 1-920): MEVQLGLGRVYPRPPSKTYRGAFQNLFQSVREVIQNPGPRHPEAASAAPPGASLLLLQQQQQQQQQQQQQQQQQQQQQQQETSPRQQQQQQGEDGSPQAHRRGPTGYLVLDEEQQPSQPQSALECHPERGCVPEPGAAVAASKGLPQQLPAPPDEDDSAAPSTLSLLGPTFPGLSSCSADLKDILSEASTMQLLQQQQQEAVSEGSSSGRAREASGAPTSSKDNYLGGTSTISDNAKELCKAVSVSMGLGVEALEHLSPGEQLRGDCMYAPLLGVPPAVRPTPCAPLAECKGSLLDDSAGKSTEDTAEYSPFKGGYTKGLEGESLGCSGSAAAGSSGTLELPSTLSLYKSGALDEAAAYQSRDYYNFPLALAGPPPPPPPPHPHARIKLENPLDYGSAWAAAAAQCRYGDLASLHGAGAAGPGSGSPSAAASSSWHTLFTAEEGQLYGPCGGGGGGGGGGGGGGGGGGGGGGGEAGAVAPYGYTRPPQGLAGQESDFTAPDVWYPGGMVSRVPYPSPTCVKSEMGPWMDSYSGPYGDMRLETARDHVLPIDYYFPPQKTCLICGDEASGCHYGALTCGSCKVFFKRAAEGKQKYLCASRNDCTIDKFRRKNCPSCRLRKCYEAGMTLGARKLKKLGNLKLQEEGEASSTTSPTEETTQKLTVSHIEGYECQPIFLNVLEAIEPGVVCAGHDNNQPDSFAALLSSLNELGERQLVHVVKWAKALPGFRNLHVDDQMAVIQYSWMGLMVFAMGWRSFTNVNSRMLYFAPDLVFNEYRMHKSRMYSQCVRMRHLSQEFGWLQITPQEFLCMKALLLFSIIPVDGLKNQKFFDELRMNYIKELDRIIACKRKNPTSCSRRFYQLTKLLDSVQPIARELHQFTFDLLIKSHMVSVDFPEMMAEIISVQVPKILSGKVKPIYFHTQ
# Experiment: VCAP AR Degradation Assay
# Format: cell-based
# Conditions: for Y (AR degradation efficiency, % of DMSO control): class symbols *; for DC50: class symbols A-C, read-out: DC50
# How it was run: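 VCaP cells treated 24 h at 37 °C with a 10-point 1:3 series (top 5 μM final; 0.1% DMSO control). Lysate AR measured by sandwich ELISA, normalized to DMSO as percent of control; DC50, EC50 and lowest AR level (Y) from four-parameter logistic fit.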
SMILES,"Y (AR degradation efficiency, % of DMSO control)",DC50
"C[C@@H]1CN(CCOc2ccc(N3C(=S)N(c4ccc(C#N)c(C(F)(F)F)c4)C(=O)C3(C)C)cc2CCF)CCN1CC(=O)Nc1cc(Cl)cc(NC2CCC(=O)NC2=O)c1 (stereo partly drawn) [Example 135, N-(3-chloro-5-(2,6-dioxopiperidin-3-ylamino)phenyl)-2-((R)-4-(2-(4-(3-(4-cyano-3-(trifluoromethyl)phenyl)-5,5-dimethyl-4-oxo-2-thioxoimidazolidin-1-yl)-2-(2-fluoroethyl)phenoxy)ethyl)-2-methylpiperazin-1-yl)acetamide]",* (0<Y<=25%),< 0.1 µM
"CCc1cc(N2C(=S)N(c3cnc(C#N)c(C(F)(F)F)c3)C(=O)C2(C)C)ccc1OCCN1CCN(CC(=O)Nc2cc(F)cc(NC3CCC(=O)NC3=O)c2)[C@H](C)C1 (stereo partly drawn) [Example 75, 2-((R)-4-(2-(4-(3-(6-cyano-5-(trifluoromethyl)pyridin-3-yl)-5,5-dimethyl-4-oxo-2-thioxoimidazolidin-1-yl)-2-ethylphenoxy)ethyl)-2-methylpiperazin-1-yl)-N-(3-(2,6-dioxopiperidin-3-ylamino)-5-fluorophenyl)acetamide]",* (0<Y<=25%),< 0.1 µM
"CC1(C)C(=O)N(c2cnc(C#N)c(C(F)(F)F)c2)C(=S)N1c1ccc(OCCN2CCN(CC(=O)Nc3cc(Cl)cc(NC4CCC(=O)NC4=O)c3)CC2)c(CC(F)F)c1 (stereo not shown) [Example 67, N-(3-chloro-5-(2,6-dioxopiperidin-3-ylamino)phenyl)-2-(4-(2-(4-(3-(6-cyano-5-(trifluoromethyl)pyridin-3-yl)-5,5-dimethyl-4-oxo-2-thioxoimidazolidin-1-yl)-2-(2,2-difluoroethyl)phenoxy)ethyl)piperazin-1-yl)acetamide]",* (0<Y<=25%),< 0.1 µM
"CCc1cc(N2C(=S)N(c3ccc(C#N)c(C(F)(F)F)c3)C(=O)C2(C)C)ccc1OCCN1CCN(CC(=O)Nc2cccc(NC3CCC(=O)NC3=O)c2)[C@H](CC)C1 (stereo partly drawn) [Example 260, 2-((R)-4-(2-(4-(3-(4-cyano-3-(trifluoromethyl)phenyl)-5,5-dimethyl-4-oxo-2-thioxoimidazolidin-1-yl)-2-ethylphenoxy)ethyl)-2-ethylpiperazin-1-yl)-N-(3-(2,6-dioxopiperidin-3-ylamino)phenyl)acetamide]",* (0<Y<=25%),0.1 to 0.5 µM
"CCc1cc(N2C(=S)N(c3cnc(C#N)c(C(F)(F)F)c3)C(=O)C2(C)C)ccc1OCCN1CCN(CC(=O)Nc2cccc(NC3CCC(=O)NC3=O)c2)[C@@H](C(F)(F)F)C1 (stereo partly drawn) [Example 200, 2-((R)-4-(2-(4-(3-(6-cyano-5-(trifluoromethyl)pyridin-3-yl)-5,5-dimethyl-4-oxo-2-thioxoimidazolidin-1-yl)-2-ethylphenoxy)ethyl)-2-(trifluoromethyl)piperazin-1-yl)-N-(3-(2,6-dioxopiperidin-3-ylamino)phenyl)acetamide]",* (0<Y<=25%),< 0.1 µM
"CCc1cc(N2C(=S)N(c3ccc(C#N)c(C(F)(F)F)c3)C(=O)C2(C)C)ccc1CCCN1CCN(CC(=O)Nc2cc(F)cc(NC3CCC(=O)NC3=O)c2)CC1 (stereo not shown) [Example 88, 2-(4-(3-(4-(3-(4-cyano-3-(trifluoromethyl)phenyl)-5,5-dimethyl-4-oxo-2-thioxoimidazolidin-1-yl)-2-ethylphenyl)propyl)piperazin-1-yl)-N-(3-(2,6-dioxopiperidin-3-ylamino)-5-fluorophenyl)acetamide]",* (0<Y<=25%),< 0.1 µM
"CC1(C)C(=O)N(c2cnc(C#N)c(C(F)(F)F)c2)C(=S)N1c1ccc(OCCN2CCN(CC(=O)Nc3cc(Cl)cc(NC4CCC(=O)NC4=O)c3)CC2)c(Cl)c1 (stereo not shown) [Example 14, hydrochloride]",* (0<Y<=25%),< 0.1 µM
"Cc1cc(OCCN2CCN(CC(=O)Nc3cccc(NC4CCC(=O)NC4=O)c3)CC2)c(F)cc1N1C(=S)N(c2ccc(C#N)c(C(F)(F)F)c2)C(=O)C1(C)C (stereo not shown) [Example 13, hydrochloride]",*** (35%<Y<50%),< 0.1 µM
"C[C@@H]1CN(CCOc2ccc(N3C(=S)N(c4ccc(C#N)c(C(F)(F)F)c4)C(=O)C3(C)C)cc2F)C[C@H](C)N1CC(=O)Nc1cccc(NC2CCC(=O)NC2=O)c1 (stereo partly drawn) [Example 278, 2-((2S,6R)-4-(2-(4-(3-(4-cyano-3-(trifluoromethyl)phenyl)-5,5-dimethyl-4-oxo-2-thioxoimidazolidin-1-yl)-2-fluorophenoxy)ethyl)-2,6-dimethylpiperazin-1-yl)-N-(3-(2,6-dioxopiperidin-3-ylamino)phenyl)acetamide]",* (0<Y<=25%),< 0.1 µM
"CC(C)c1cc(N2C(=S)N(c3ccc(C#N)c(C(F)(F)F)c3)C(=O)C23CCC3)cnc1OCCN1C[C@@H](C)N(CC(=O)Nc2cc(C#N)cc(NC3CCC(=O)NC3=O)c2)C[C@H]1C (stereo partly drawn) [Example 231, 2-((2R,5R)-4-(2-(5-(7-(4-cyano-3-(trifluoromethyl)phenyl)-8-oxo-6-thioxo-5,7-diazaspiro[3.4]octan-5-yl)-3-isopropylpyridin-2-yloxy)ethyl)-2,5-dimethylpiperazin-1-yl)-N-(3-cyano-5-(2,6-dioxopiperidin-3-ylamino)phenyl)acetamide]",* (0<Y<=25%),0.1 to 0.5 µM
CCc1cc(N2C(=S)N(c3ccc(C#N)c(C(F)(F)F)c3)C(=O)C2(C)C)ccc1OCCN1CCN(CC(=O)Nc2cccc(NC3CCC(=O)NC3=O)c2)[C@@H](CO)C1 (stereo partly shown) [Example 51],*** (35%<Y<50%),0.1 to 0.5 µM
"CCc1cc(N2C(=S)N(c3cnc(C#N)c(C(F)(F)F)c3)C(=O)C23CCC3)ccc1OCCN1CCN(C2(C(=O)Nc3cccc(NC4CCC(=O)NC4=O)c3)CC2)CC1 (stereo not shown) [Example 188, 1-(4-(2-(4-(7-(6-cyano-5-(trifluoromethyl)pyridin-3-yl)-8-oxo-6-thioxo-5,7-diazaspiro[3.4]octan-5-yl)-2-ethylphenoxy)ethyl)piperazin-1-yl)-N-(3-(2,6-dioxopiperidin-3-ylamino)phenyl)cyclopropanecarboxamide]",* (0<Y<=25%),< 0.1 µM
"C[C@@H]1CN(CCOc2ccc(N3C(=S)N(c4ccc(C#N)c(C(F)(F)F)c4)C(=O)C34CCC4)cc2CCF)CCN1CC(=O)Nc1cc(Cl)cc(NC2CCC(=O)NC2=O)c1 (stereo partly drawn) [Example 143, N-(3-chloro-5-(2,6-dioxopiperidin-3-ylamino)phenyl)-2-((R)-4-(2-(4-(7-(4-cyano-3-(trifluoromethyl)phenyl)-8-oxo-6-thioxo-5,7-diazaspiro[3.4]octan-5-yl)-2-(2-fluoroethyl)phenoxy)ethyl)-2-methylpiperazin-1-yl)acetamide]",* (0<Y<=25%),< 0.1 µM
"C[C@@H]1CN(CCOc2ccc(N3C(=S)N(c4ccc(C#N)c(C(F)(F)F)c4)C(=O)C34CCCC4)cc2C2CC2)C[C@H](C)N1CC(=O)Nc1cccc(NC2CCC(=O)NC2=O)c1 (stereo partly drawn) [Example 266, 2-((2S,6R)-4-(2-(4-(3-(4-cyano-3-(trifluoromethyl)phenyl)-4-oxo-2-thioxo-1,3-diazaspiro[4.4]nonan-1-yl)-2-cyclopropylphenoxy)ethyl)-2,6-dimethylpiperazin-1-yl)-N-(3-(2,6-dioxopiperidin-3-ylamino)phenyl)acetamide]",* (0<Y<=25%),< 0.1 µM
